According to patent publication US7803757B2, “Peptides based on the sequence of human lactoferrin and their use” (PharmaSurgics in Sweden AB, priority 1998, dated 2010):
Peptide text beside a SMILES is read from it. * marks the point of attachment. Acm = CC(=O)NC*

Legend:
Assay type in all cases: cell-based
E. coli O14 [1] = test: bactericidal and growth inhibitory activity, E. coli O14 (Example 9)
Procedure: E. coli O14 was incubated as described above in the presence of the peptides during 2 hours. The bactericidal activity was measured in the same way as described above.
The inhibition of growth was measured spectrophotometrically after incubation during 20 hours.

C. neoformans = test: fungicidal activity MMC99%, C. neoformans (Example 27); details: BHI diluted 1/100 (Table 23)
Procedure: In the examples, the minimal microbicidal concentrations (MMC) and minimal inhibitory concentrations (MIC) were determined as follows, unless otherwise specified in the examples. Bacterial or fungal strains were cultured in BHI medium over night at 37° C. A volume of the culture was transferred to a new tube with BHI and incubated for two more hours. Thereafter the cells were spun down and the pellet was suspended in BHI medium diluted 1/100 (1% BHI). The concentration of bacterial or fungal cells was spectrophotometrically determined at 650 nm. The microbial concentrations were also determined by viable counts. Peptides serially diluted in 1% BHI by twofold or tenfold steps were added in triplicate to the wells of a microtiterplate (200 μl per well). […] The microplate was incubated for another 20 hours at 37° C. and thereafter analysed spectrophotometrically at 650 nm in a microplate reader (Emax, Molecular Devices, USA). […] The MIC value was defined as the concentration giving no increase in the absorbance value above the background level after 20 hours of incubation.
In this example the fungicidal activity of three of the peptides according to the invention was studied, and tested against three different fungi. […] The concentration of each peptide needed to kill 99% of the fungi (MMC99%) was determined.

E. coli O6K5 = test: bactericidal activity, incubation with E. coli O6K5 (Example 3, exp. II); details: Exp. II: 100% killing, E. coli O6K5, 1/100 BHI, 2 hours
Procedure: (§1) Human lactoferrin (hLF), peptide 3, and peptide 4, respectively, were incubated with two different strains of E. coli, E. coli O14 (experiment I) and O6K5 (experiment II), in diluted growth medium ( 1/100 BHI—brain heart infusion) for 2 hours. The peptides were also incubated with E. coli O14 in 0.05 mM KCl (pH 7) without any growth medium (experiment III). Different concentrations of the peptides were tested.
(§2) After the incubation, samples were taken for bacterial plating. Serial dilutions of five- and fourfold steps were used in experiments I and II, respectively, and of twofold steps in experiment III.
(§3) The concentrations of the different peptides required for killing 100% (experiments I and II) or 90% (experiment III) of the bacteria are given in table 2.

C. albicans [2] = test: fungicidal activity MMC99%, C. albicans (Example 27); details: BHI diluted 1/100 (Table 23)
Procedure: (§4) In the examples, the minimal microbicidal concentrations (MMC) and minimal inhibitory concentrations (MIC) were determined as follows, unless otherwise specified in the examples. Bacterial or fungal strains were cultured in BHI medium over night at 37° C. A volume of the culture was transferred to a new tube with BHI and incubated for two more hours. Thereafter the cells were spun down and the pellet was suspended in BHI medium diluted 1/100 (1% BHI). The concentration of bacterial or fungal cells was spectrophotometrically determined at 650 nm. The microbial concentrations were also determined by viable counts. Peptides serially diluted in 1% BHI by twofold or tenfold steps were added in triplicate to the wells of a microtiterplate (200 μl per well). The bacterial or fungal cell solutions were added in 10 μl volumes to give a final concentration of approximately 1-5×10^5 cells per ml in the well. The microplate was incubated at 37° C. in a humid chamber for two hours. Thereafter 5 μl was taken from each well and added as a drop onto a blood agar plate and incubated over night at 37° C. The microplate was incubated for another 20 hours at 37° C. and thereafter analysed spectrophotometrically at 650 nm in a microplate reader (Emax, Molecular Devices, USA). The concentration of peptide causing a 99% reduction of the inoculum after 2 hours of incubation was defined as the MMC99%. The MIC value was defined as the concentration giving no increase in the absorbance value above the background level after 20 hours of incubation.
(§5) In this example the fungicidal activity of three of the peptides according to the invention was studied, and tested against three different fungi. The fungi were incubated in BHI medium diluted 1/100. The concentration of each peptide needed to kill 99% of the fungi (MMC99%) was determined.

C. albicans [3] = test: concentration for killing of 99% of C. albicans at different pH (Example 13, FIG. 2); details: FIG. 2, different pH
From the text: In this example the concentrations needed of three peptides according to the invention for killing of 99% of C. albicans at different pH was compared to a reference peptide. The peptides according to the invention were peptide 2 (linear), peptide 3 (cyclic), peptide 4 (linear), peptide 5 (cyclic) and peptide 7 (lactam bridged), all capped. The reference peptides used were an uncapped cyclic form and an uncapped linear form of a Morinaga peptide, Morinaga 24 and 25. The results are illustrated in FIG. 2.

C. glabrata = test: fungicidal activity MMC99%, C. glabrata (Example 27); details: BHI diluted 1/100 (Table 23)
Procedure: as §4, §5

E. coli O14 [4] = test: bactericidal activity, incubation with E. coli O14 (Example 3, exp. I and III)
Procedure: as §1, §2, §3

SMILES: CC[C@H](C)[C@H](NC(=O)[C@H](CSCNC(C)=O)NC(=O)[C@H](CO)NC(=O)[C@@H](NC(=O)[C@@H]1CCCN1C(=O)[C@@H]1CCCN1C(=O)CNC(=O)[C@H](CCCNC(=N)N)NC(=O)[C@@H](NC(=O)[C@H](CCCCN)NC(=O)[C@H](CCCNC(=N)N)NC(=O)[C@H](CCSC)NC(=O)[C@H](CC(N)=O)NC(=O)[C@H](CCCNC(=N)N)NC(=O)[C@H](CCC(N)=O)NC(=O)[C@H](Cc1c[nH]c2ccccc12)NC(=O)[C@H](CCC(N)=O)NC(=O)[C@H](Cc1ccccc1)NC(=O)[C@H](CSCNC(C)=O)NC(=O)[C@H](CCCCN)NC(=O)[C@@H](NC(C)=O)[C@@H](C)O)C(C)C)C(C)C)C(=O)N[C@@H](CCCCN)C(=O)N[C@@H](CCCNC(=N)N)C(N)=O [Peptide 4] (Ac-TKC(Acm)FQWQRNMRKVRGPPVSC(Acm)IKR-NH2)
- Concentration of agent for 100% killing (E. coli O14 [1]; E. coli O14, 2 hours): 12.5 µg/mL
- Concentration of agent for inhibition of growth (E. coli O14 [1]; E. coli O14, spectrophotometrically after 20 hours): 3.1 µg/mL
- MMC99% (C. neoformans): ≦3.1
- Concentration of agent for 100%/90% killing (E. coli O6K5): ≦7.8 μg/ml
- MMC99% (C. albicans [2]): 6.3
- concentration needed for killing of 99% of C. albicans, compared with the capped cyclic peptides (in words) (C. albicans [3]): better effects than the capped cyclic peptides
- MMC99% (C. glabrata): >50
- Concentration of agent for 100%/90% killing (E. coli O14 [4]; Exp. I: 100% killing, E. coli O14, 1/100 BHI, 2 hours): 4.4 µg/mL
- Concentration of agent for 100%/90% killing (E. coli O14 [4]; Exp. III: 90% killing, E. coli O14, 0.05 mM KCl (pH 7) without growth medium): 3.2 µg/mL
